Common to all, as to format: in vivo
In assay [1] the test system is rat's sciatic nerve. The experiment in a line: Rat sciatic nerve block, sensory block tested with von Frey stimulator. The following applies: 0.5 mL injected near sciatic nerve, test drugs 20 mmol/mL in distilled water, lidocaine 2%, levobupivacaine 0.75%; for Local anesthesia onset time (Median): 8 rats per group; for Time of sensory block (Median): von Frey. How it is done:
(§1) For the dosage, the lidocaine group is 2% aqueous solution, the levobupivacaine group is 0.75% aqueous solution, and test drug groups are all distilled water solution at the concentration of 20 mmol/mL.
(§2) The injection volume for each rat or the control was 0.5 mL, which was guided by a nerve locator and injected near the rat's sciatic nerve. Using von Frey stimulator, the rats were stimulated the soles of the feet in the injected side, to observe the effect of local anesthesia. Meanwhile, Postural Extensor Thrust (PET) was used to evaluate the motor function of the rat: the rat was lifted vertically and the hindlimb in the injected side pedaled on the platform of the electronic balance. […] When the limb was completely paralyzed, the reading was the limb's own weight, about 20 g. If the measured value was more than half of the difference between the baseline and the limb weight, the motor function was regarded as recovery, and if the value was less than or equal to this difference, the motor function was regarded as loss.

For assay [2], the system named is back skin of rat. Briefly: Local anesthetic effect by subcutaneous infiltration in rat back skin (Von Frey 100 g). The following applies: 0.5 mL in saline, compound 6 mmol/L, bupivacaine 23 mmol/L, 10 rats per compound. How it is done: After the back of rat weighing 250-300 g was shaved and disinfected, a circle with a diameter of about 1.5 cm was drawn on the side of the exposed back, and the circle is divided into 6 equal parts. […] Among the Von Frey fiber yarns, the one with a strength of 100 g was bound to the needle for local skin stimulation. One minute After the drug was injected, the above method was used to stimulate in 6 divisions. […] If back skin contraction was observed, the local anesthetic effect was considered as loss. […] Each compound was tested with 10 rats.

Assay [3] deals with rat's sciatic nerve. The experiment in a line: Rat sciatic nerve block, motor function by Postural Extensor Thrust (PET). The following applies: 0.5 mL injected near sciatic nerve, test drugs 20 mmol/mL in distilled water, lidocaine 2%, levobupivacaine 0.75%. How it is done: as §1, §2

Turning to `CC[N+](C)(CCCN1CCCCC1C(=O)Nc1c(C)cccc1C)CC(=O)Nc1c(C)ccc(Cl)c1C` (stereo not drawn) [example 6], in assay [1], the “Local anesthesia onset time (Median)” value is listed as 3 min and the “Time of sensory block (Median)” value was 30 h. Moreover, in assay [2], the “Lasting time of local anesthesia (Median)” value (“Lasting time” below) worked out at 47 h and the “Local anesthesia onset time (Median)” value is listed as 1 min. Moreover, the “Time of motor block (Median)” value in assay [3] is 19 h.

Consider `CCC[N+](CC)(CCCCCCCCN1CCCCC1C(=O)Nc1c(C)cccc1C)CC(=O)Nc1c(C)cccc1OC` (stereo not drawn) [example 7], for which, in assay [1], the “Local anesthesia onset time (Median)” value turned out to be 2 min and the “Time of sensory block (Median)” value is recorded as 28 h. Also, in assay [2], the “Lasting time” value is 57 h and the “Local anesthesia onset time (Median)” value is recorded as 1 min. Also, the “Time of motor block (Median)” value in assay [3] is listed as 10 h.

For the compound `CCC[N+](C)(CCCCCN1CCCCC1C(=O)Nc1c(C)ccc(C#N)c1C)CC(=O)Nc1c(C)cccc1C` (stereo not drawn) [example 8], in assay [1], the “Local anesthesia onset time (Median)” value worked out at 1 min and the “Time of sensory block (Median)” value was 24 h. Further, in assay [2], the “Lasting time” value worked out at 33 h and the “Local anesthesia onset time (Median)” value was found to be 1 min. Also, in assay [3], the “Time of motor block (Median)” value was found to be 18 h.

On to `CC[N+](C)(CCCN(C)CC(=O)Nc1c(C)cccc1C)CC(=O)Nc1c(C)cccc1C` (stereo not drawn) [example 9], for which, in assay [1], the “Local anesthesia onset time (Median)” value is 5 min and the “Time of sensory block (Median)” value was determined as 24 h. Moreover, in assay [2], the “Lasting time” value came to 28 h and the “Local anesthesia onset time (Median)” value amounted to 2 min. Also, in assay [3], the “Time of motor block (Median)” value was found to be 10 h.

For the compound `CCC[N+](CC)(CCCCCCCCN1CCCCC1C(=O)Nc1c(C)cccc1C)CC(=O)Nc1c(C)ccc(Br)c1C` (stereo not drawn) [example 11], in assay [1], the “Local anesthesia onset time (Median)” value came to 1 min and the “Time of sensory block (Median)” value is given as 34 h. Also, in assay [2], the “Lasting time” value is on record as 54 h and the “Local anesthesia onset time (Median)” value is 1 min. For the same compound, in assay [3], the “Time of motor block (Median)” value worked out at 11 h.

As for `CCC[N+](C)(CCCCCN1CCCCC1C(=O)Nc1c(C)cc(C)cc1C)CC(=O)Nc1c(C)cc(C#N)cc1C` (stereo not drawn) [example 13], in assay [1], the “Local anesthesia onset time (Median)” value is 1 min and the “Time of sensory block (Median)” value was found to be 25 h. In addition, in assay [2], the “Lasting time” value is recorded as 45 h and the “Local anesthesia onset time (Median)” value is on record as 1 min. Further, the “Time of motor block (Median)” value in assay [3] is 17 h.

The values are drawn from patent publication US11697639B2, “Quaternary ammonium salt compound, preparation method therefor and use thereof” (WEST CHINA HOSPITAL, SICHUAN UNIVERSITY, priority 2018, dated 2023).
